Key:
[1] = system: TIMP-1; assay: Hepatic TIMP-1 protein levels; type: in vivo, rat; conditions: tissue homogenates; CCl4 6 weeks, then 6-week treatment 20 mg/kg/day
[2] = system: rats with CCl4-induced liver fibrosis; assay: Serum liver biomarkers in CCl4-induced liver fibrosis; type: in vivo, rat; conditions: CCl4 6 weeks, then 6-week treatment 20 mg/kg/day
[3] = system: male Wistar rats; assay: In vivo toxicity study: daily inspection and body weight; conditions: daily inspection, body weight twice weekly, 6 weeks
[4] = system: MDA; assay: Lipid peroxides; type: in vivo, rat; conditions: liver homogenates; CCl4 6 weeks, then 6-week treatment 20 mg/kg/day
[5] = system: rat livers; type: in vivo; conditions: toxicity groups
[6] = system: TNF-α; assay: Liver TNF-α content; type: in vivo, rat; conditions: liver homogenates; CCl4 6 weeks, then 6-week treatment 20 mg/kg/day
[7] = system: male Wistar rats; assay: In vivo toxicity study: hepatic and renal serum biomarkers; conditions: in vivo toxicity study groups, 6 weeks, mean ± SEM, n = 5
[8] = system: α-SMA; assay: Immunohistochemical staining of α-SMA in CCl4-induced liver fibrosis; type: in vivo, rat; conditions: CCl4 6 weeks, then 6-week treatment 20 mg/kg/day; vs model group
[9] = system: GSH; assay: Reduced glutathione; type: in vivo, rat; conditions: liver homogenates; CCl4 6 weeks, then 6-week treatment 20 mg/kg/day
[10] = system: TGF-β1; assay: Hepatic TGF-β1 mRNA expression; type: in vivo, rat; conditions: CCl4 6 weeks, then 6-week treatment 20 mg/kg/day; vs model group
[11] = system: rats with CCl4-induced liver fibrosis; assay: Liver histology; type: in vivo, rat; conditions: CCl4 6 weeks, then 6-week treatment 20 mg/kg/day
[12] = system: MMP-9; assay: Hepatic MMP-9 mRNA expression; type: in vivo, rat; conditions: CCl4 6 weeks, then 6-week treatment 20 mg/kg/day

Compound: Cc1ccc(-c2cc(C(F)(F)F)nn2-c2ccc(S(N)(=O)=O)cc2)cc1 [celecoxib]
- Hepatic TIMP-1 protein levels [1]: caused a decrease in TIMP-1 levels
- Serum ALP levels ([2]; normal range 30 to 130 U/L): lied within the normal range
- Serum AST and ALT levels ([2]; vs model group): significant reduction in liver enzyme levels
- Total serum bilirubin (TBIL) levels ([2]; vs model group): significant decrease in the total serum bilirubin levels
- Signs of stress, toxicity or weight loss [3]: did not show any signs of stress, toxicity or weight loss
- MDA content (lipid peroxides) [4]: significant lowering effect on MDA levels
- Gross examination of rat livers [5]: normal smooth livers with no inflammation or fatty depositions
- Liver TNF-α content [6]: significantly superior effect in lowering TNF-α levels
- ALP [7]: 123 ± 6.59 U/L
- ALT [7]: 45.66 ± 0.88 U/L
- AST [7]: 127.5 ± 14 U/L
- Albumin [7]: 3.68 ± 0.04 g/dL
- Creatinine [7]: 0.43 ± 0.06 mg/dL
- Total Bilirubin [7]: 0.045 ± 0.006 mg/dL
- α-SMA % change (in words) [8]: significant decline of the α-SMA %
- GSH content [9]: significant rise in GSH levels
- Hepatic TGF-β1 mRNA expression [10]: significant reduction in the expression of TGF- β1
- Liver architecture (H&E) [11]: evident fibrolytic effects
- Fibrosis score (0–4) ([11]; Masson's trichrome): significant decrease in fibrosis scores
- Hepatic MMP-9 mRNA expression [12]: reversed that upregulation
